Measurements as given in patent US9518038B2, “Condensation product of theanine derivative and carboxylic acid coumarin derivative, its intermediate, preparation method and use thereof” (SHANDONG YINGDONG YINGHAO BIOTECHNOLOGY, INC., priority 2012, dated 2016).

Columns and labels:
EZH2 = molecular target: T1, EZH2 (Homo sapiens, UniProt Q15910); assay: EZH2 enzyme activity in protein extracts of human tumor xenografts of treated mice (EZH2 Assay Kit); type: in vivo; conditions: tumors excised 6 h after medication, SAHA 25 mg/kg
T1 construct: the EZH2 enzyme was replaced with tumor protein extracts in each group; from tissue; host or cells: human tumour xenografts excised from treated nude mice

[1] = tested on: Caski human cervical cancer cells; assay: MTT growth inhibition, Caski cells; type: cell-based; conditions: Ca-Ski, 72 h after treatment, read-out: Drug concentration (IC50) at which 50% cancer cells survived
Cyclin D1 = assay: Western Blotting, Cyclin D1 level; type: cell-based; conditions: human liver cancer cells, Lewis lung cancer cells and other cancer cell lines and tumor tissues, read-out: Effective concentration (IC50) for inhibition of Cyclin D1
Source text: (§1) Antibodies: primary antibodies of VEGFR, EGFR, c-Met, K-Ras, H-Ras, Akt, NF-κB, Cyclin D1, ER-alpha, Dvl-1, Dvl-2, Dvl-3, MMP-9, MMP2, β-catenin, Bcl-2, Bax, p53, p21, E-cadherin and Caspase3 protein, purchased from American Cell Signaling Technology Company and Santa Cruz Technology Company; and H3 acetylation, H4 acetylation and HDAC (HDAC3, HDAC4 and the like) Antibody Sample Kits, purchased from Cell Signaling Technology Company of the U.S.
(§2) (3) polyacrylamide gel electrophoresis (SDS-PAGE): an equal amount of protein lysate sample was used to separate protein, film transfer, and blocking, treated with appropriate primary antibodies and secondary antibodies in sequence, and the film was washed, then the color was developed with ECL kit, and a blot protein band was detected by exposure of an X-ray film; and a Gel-Pro Analyzer was used for quantitative analysis of gray degree, optical density value of the control group and the drug treatment group in various concentration were respectively compared with that of internal reference, the obtained ratios were respectively compared with the control group, and the protein expression level was semi-quantified.

[2] = tested on: human breast cancer cells MDA-MB231 xenograft; assay: In-vivo growth of MDA-MB231 xenografts in nude mice; set-up: species or system BALB/c nude mice; conditions: Mus musculus, MDA-MB-231, ip, MB-231 xenograft, vs DMSO solvent control, read-out: Curative effect (inhibition rate %) of tumor weight; for inhibition in vivo at 60 mg/kg: 60 mg/kg intraperitoneal once a day; for inhibition in vivo at 90 mg/kg: 90 mg/kg intraperitoneal once a day
Experimental: RPMI1640 and DMEM culture solutions: Hyclone Company; inactivated fetal bovine serum: Hyclone Company, preserved at −20° C.; trypsin: Amersco Company; and 0.4% trypan blue: Sigma Company;
(3) Observation of growth of tumors in nude mice: the activities (including food intake, traits of urine and stool, mental state and the like) of the nude mice and the tumor growth time and growth situation of the transplanted tumors were observed every day, the body weight and the size of the tumors were measured once every 2-3 days. The long diameter a and the short diameter b (mm) of each tumor were measured by a vernier caliper to calculate the volume, wherein the volume V=π1/2·ab^2 (mm^3);
(4) sacrifice of animals: the mice were anesthetized and photoed after treatment experiments; the nude mice were sacrificed by breaking neck, the tumor tissues were stripped under sterile conditions and the weight of the tumors was weighed; and the effects of the drugs on pathology and toxicity of the various organs and tissues were detected.

[3] = tested on: human gastric cancer cells BGC-823; assay: MTT growth inhibition, BGC-823 cells; type: cell-based; conditions: 72 h after treatment, read-out: Drug concentration (IC50) at which 50% cancer cells survived
HDAC4 = HDAC4 enzyme activity in nuclear extracts of human tumor xenografts of treated mice; conditions: second value of the pair HDAC3 and HDAC4, SAHA 25 mg/kg
Experimental: For the detection of the effect of the drugs on enzyme activity of EZH2 and HDAC of in-vivo tumors, the tumors were separately excised after 6 h of medication, total proteins and nucleoproteins were extracted separately to detect and analyze the activity of the enzyme.
(2) 50 μl of diluted sample solution was added into each reaction well, the plate was sealed with a plate-sealing film and reacted at room temperature for 30 min;
(3) the plate-sealing film was carefully peeled off, the liquid was removed, dried, 150 μl of washing liquid was added into each well, stood for 30 s, then the liquid was removed, repeated twice, and dried;
(4) 2 μl of HDAC enzyme or tumor tissue nuclear extracts was respectively uniformly mixed with 28 μl of diluted sample solution, added into the wells, the plate was sealed with the plate-sealing film and reacted at 37° C. for 60 min;
(5) the plate was washed for three times, wherein the operation was the same as that in (3); and a diluted antibody capture working solution was added into each reaction well according to 50 μl/well and reacted on a shaking bed at room temperature for 60 min;
(6) the plate was washed for four times, wherein the operation was the same as that in (3);
(7) a diluted antibody detection working solution was added into each reaction well according to 50 μl/well and reacted at room temperature for 30 min;
(8) the plate was washed for five times, wherein the operation was the same as that in (3);
a color developing agent was added according to 100 μl/well, and performed dark development for 2-10 min;
(9) 50 μl of stop solution was added into each well for stopping the reaction when the color in the well with a standard product turned blue with medium intensity, the color immediately turned yellow from blue after the addition;
(10) the light absorbance (OD value) of each well was measured in sequence at the wavelength of 450 nm; wherein the measurement should be performed within 15 min after addition of the stop solution; and

EGFR = assay: Western Blotting, EGFR level; type: cell-based; conditions: human liver cancer cells, Lewis lung cancer cells and other cancer cell lines and tumor tissues, read-out: Effective concentration (IC50) for inhibition of EGFR
Source text: as §1, §2

T1 sequence (Q15910 whole entry): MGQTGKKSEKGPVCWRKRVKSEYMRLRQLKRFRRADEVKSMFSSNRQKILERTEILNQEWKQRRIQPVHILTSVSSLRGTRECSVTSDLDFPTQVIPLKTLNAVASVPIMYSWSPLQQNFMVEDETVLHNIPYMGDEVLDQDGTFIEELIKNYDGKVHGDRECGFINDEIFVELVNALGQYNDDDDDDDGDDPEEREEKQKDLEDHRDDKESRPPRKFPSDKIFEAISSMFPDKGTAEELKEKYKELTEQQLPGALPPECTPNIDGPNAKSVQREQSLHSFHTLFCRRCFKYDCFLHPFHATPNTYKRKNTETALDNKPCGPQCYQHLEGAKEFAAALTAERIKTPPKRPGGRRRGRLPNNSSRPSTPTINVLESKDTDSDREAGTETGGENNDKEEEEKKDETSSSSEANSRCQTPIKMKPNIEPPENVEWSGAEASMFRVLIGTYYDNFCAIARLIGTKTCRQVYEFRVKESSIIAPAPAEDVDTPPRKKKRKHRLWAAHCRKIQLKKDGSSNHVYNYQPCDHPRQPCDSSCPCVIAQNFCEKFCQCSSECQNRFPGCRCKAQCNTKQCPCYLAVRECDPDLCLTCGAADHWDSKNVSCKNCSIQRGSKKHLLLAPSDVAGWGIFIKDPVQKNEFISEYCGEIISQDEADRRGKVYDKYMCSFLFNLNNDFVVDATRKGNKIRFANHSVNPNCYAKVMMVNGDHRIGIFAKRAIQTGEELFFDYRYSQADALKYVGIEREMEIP
T1 sequence (O75530 whole entry partner): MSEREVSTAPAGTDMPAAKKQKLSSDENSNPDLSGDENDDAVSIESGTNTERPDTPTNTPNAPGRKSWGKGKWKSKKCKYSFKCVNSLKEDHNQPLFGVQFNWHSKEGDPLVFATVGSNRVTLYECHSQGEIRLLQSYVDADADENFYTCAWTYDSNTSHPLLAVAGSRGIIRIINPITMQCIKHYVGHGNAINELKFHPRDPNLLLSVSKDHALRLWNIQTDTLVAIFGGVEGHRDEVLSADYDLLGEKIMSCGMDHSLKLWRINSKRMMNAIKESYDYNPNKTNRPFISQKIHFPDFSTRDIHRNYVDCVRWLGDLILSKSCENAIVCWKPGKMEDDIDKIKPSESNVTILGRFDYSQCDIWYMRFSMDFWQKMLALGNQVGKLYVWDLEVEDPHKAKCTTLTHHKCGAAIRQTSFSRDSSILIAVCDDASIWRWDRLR
T1 sequence (Q15022 whole entry partner): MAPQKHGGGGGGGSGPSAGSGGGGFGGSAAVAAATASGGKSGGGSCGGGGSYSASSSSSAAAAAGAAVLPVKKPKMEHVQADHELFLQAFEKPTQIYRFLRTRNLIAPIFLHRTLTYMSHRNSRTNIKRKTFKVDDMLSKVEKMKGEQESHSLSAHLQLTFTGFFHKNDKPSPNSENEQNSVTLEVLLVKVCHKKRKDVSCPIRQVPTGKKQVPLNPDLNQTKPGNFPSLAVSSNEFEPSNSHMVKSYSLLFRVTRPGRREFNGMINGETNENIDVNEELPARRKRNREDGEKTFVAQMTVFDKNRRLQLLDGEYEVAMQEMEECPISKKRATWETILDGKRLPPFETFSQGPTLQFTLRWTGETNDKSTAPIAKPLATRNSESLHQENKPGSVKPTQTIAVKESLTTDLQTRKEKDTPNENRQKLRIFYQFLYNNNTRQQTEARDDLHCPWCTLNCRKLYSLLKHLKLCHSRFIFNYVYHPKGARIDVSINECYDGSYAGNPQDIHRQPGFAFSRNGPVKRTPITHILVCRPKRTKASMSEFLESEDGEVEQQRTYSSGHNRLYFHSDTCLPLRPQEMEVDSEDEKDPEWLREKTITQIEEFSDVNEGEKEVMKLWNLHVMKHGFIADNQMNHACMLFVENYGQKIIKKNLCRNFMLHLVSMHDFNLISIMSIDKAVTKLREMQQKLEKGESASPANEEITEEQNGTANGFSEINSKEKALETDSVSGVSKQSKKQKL

Compound | decrease of EZH2 enzyme activity/inhibition rate (EZH2; A549 tumor grown in vivo) | decrease of EZH2 enzyme activity/inhibition rate (EZH2; MCF7 tumor grown in vivo) | decrease of EZH2 enzyme activity/inhibition rate (EZH2; MDA-MB231 tumor grown in vivo) | decrease of EZH2 enzyme activity/inhibition rate (EZH2; SMMC7721 tumor grown in vivo) | IC50 [1] [µM] | IC50 (Cyclin D1) [µM] | inhibition in vivo at 60 mg/kg [2] [%] | inhibition in vivo at 90 mg/kg [2] [%] | IC50 [3] [µM] | decrease of HDAC4 enzyme activity/inhibition rate (HDAC4; A549 tumor grown in vivo) | decrease of HDAC4 enzyme activity/inhibition rate (HDAC4; MCF7 tumor grown in vivo) | decrease of HDAC4 enzyme activity/inhibition rate (HDAC4; MDA-MB231 tumor grown in vivo) | decrease of HDAC4 enzyme activity/inhibition rate (HDAC4; SMMC7721 tumor grown in vivo) | IC50 (EGFR) [µM]
CCNC(=O)CC[C@@H](NC(=O)c1cc2cc(Cl)cc(Cl)c2oc1=O)C(=O)OCC [Compound Ig, (R)-2-(6,8-dichloro-2-oxo-2H-benzopyran-3-carboxamido)-5-ethylamino-5-oxo-pentanoic ethyl ester] | 57%*(A549)- | 65%*(MCF7) | 61%*(MDA-MB231) | 58%*(SMMC7721); | 36 | < 70 | 59.1 | 72.1 | 60 | 63%*(A549)- | 68%*(MCF7) | 66%*(MDA-MB231) | 64%*(SMMC7721); | < 100
CCNC(=O)CC[C@@H](NC(=O)c1cc2cc(Br)cc(Br)c2oc1=O)C(=O)OCC [Compound Ih, (R)-2-(6,8-dibromo-2-oxo-2H-benzopyran-3-carboxamido)-5-ethylamino-5-oxo-pentanoic ethyl ester] | 55%*(A549)- | 61%*(MCF7) | 59%*(MDA-MB231) | 56%*(SMMC7721); | 53 | < 70 | 55.1 | 75.1 | 85 | 59%*(A549)- | 66%*(MCF7) | 64%*(MDA-MB231) | 62%*(SMMC7721); | < 100
